Among the data in patent publication US9850283B2, “Macrocyclic inhibitors of the PD-1/PD-L1 and CD80(B7-1)/PD-L1 protein/protein interactions” (BRISTOL-MYERS SQUIBB COMPANY, priority 2013, dated 2017) are EC50 and IC50 values, retold here.

As a reminder, the EC50 is the concentration that produces a half-maximal response.

One experiment has as its target CMV-specific T cells (Homo sapiens, UniProt Q9NZQ7). The experiment in a line: CMV-specific T cell function assay (IFNγ secretion, ELISA). To be noted: numeric value; read-out: CMV Recall EC50 values. It counts as cell-based. How it is done:
CMV-specific T Cell Function Assay. […] AIM-V medium (Life Technologies, Grand Island, N.Y.) supplemented with 10% heat-inactivated fetal bovine serum (FBS, Sigma, St Louis, Mo.) was used at a total volume of 200 µL/well in triplicate. The cells were cultured for 4 days at 37° C., 5% CO2 at which time culture supernatant was harvested for determination of secreted IFNγ by ELISA (OptEIA hIFNγ ELISA Kit, BD Biosciences, San Jose, Calif.).
On the technique in general: ELISA stands for enzyme-linked immunosorbent assay.

The next experiment has as its target T1, Human PD-L1/PD-1 (Homo sapiens, UniProt Q9NZQ7).
T1 construct: made in house; host or cells: HEK293T
The experiment in a line: HTRF PD-1-Ig/PD-L1-His binding assay (human PD-L1). To be noted: read-out: HTRF Human PD-L1/PD-1 Binding Assay IC50. In a few lines: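 Interaction of Fc-tagged soluble PD-1 with His-tagged soluble PD-L1 is monitored by time-resolved FRET. Donor is europium cryptate anti-Ig (1 nM final) and acceptor is APC anti-His (20 nM final). Assay buffer is dPBS with 0.1% BSA and 0.05% Tween-20.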
In general terms: In TR-FRET formats the signal depends on donor and acceptor labels being close together.

The target in a further experiment is Hu PD-L1/PD-1 (Homo sapiens, UniProt Q9NZQ7). The experiment in a line: Cell binding assay Hu PD-L1/PD-1 (Tables 11-13, cell line not given). The format is cell-based. How it is done:
The ability of the macrocyclic peptides of the present disclosure to bind to Jurkat, mouse B cell line (LK35.2), and a human lung adenocarcinoma cell line (L2987) was investigated. Jurkat-PD-1 Cell Binding Assay. Phycoerythrin (PE) was covalently linked to the Ig epitope tag of human PD-L1-Ig and fluorescently-labeled PD-L1-Ig was used for binding studies with a Jurkat cell line over-expressing human PD-1 (Jurkat-PD-1). […] Cells were washed 3× in dPBS. Cells were resuspended in 200 μl of dPBS and binding was measured by flow cytometry. LK35.2-hPD-L1 Cell Binding Assay. Phycoerythrin (PE) was covalently linked to the Ig eptitope tag of human PD-1-Ig and fluorescently-labeled PD-1-Ig was used for binding studies with a mouse B cell line (LK35.2) stably over-expressing human PD-L1 (LK35.2-hPD-L1). Briefly, […] LK35.2-hPD-L1 cells were pre-incubated with inhibitor for 15 m in a 30 μl volume of RPMI supplemented with 2% fetal calf serum. 20 μl of PE-labeled PD-1-Ig (2 nM final), diluted in RPMI supplemented with 2% fetal calf serum, was dispensed on top of cells and inhibitor and binding was allowed to take place for 1 h at room temperature. Cells were washed 3× in dPBS. Cells were resuspended in 200 μl of dPBS and binding was measured by flow cytometry. L2987 Cellomics Cell Binding Assay. Phycoerythrin (PE) was covalently linked to the Ig eptitope tag of human PD-1-Ig and fluorescently-labeled PD-1-Ig was used for binding studies with a human lung adenocarcinoma cell line (L2987) which naturally expresses PD-L1. […] The following day, inhibitors were diluted in serum-free DMEM and 25 μl was dispensed on top of cells. […] Samples were incubated for 1 h at 37° C. followed by 2 washes in dPBS and fixation for 30 m with 4% paraformaldehyde. Samples were further washed 2× in dPBS. Hoechst (final 1 μg/ml) was added to final wash to stain nuclei. Plates were processed using a Cellomics […]®.

[1] abbreviates: Table 9, Compound No. 71 variant macrocyclic peptides.
[2] abbreviates: Table 13, Compound No. 71 series.

Where two headings read alike, the source gives them in different places. Starred links: 1 amine or outer side, 2 acyl side, 3 side chain; linkers in the order of their positions; H or OH if unused. Positions of bridges follow the written chain, without caps; N, C: chain ends. Non-standard residues stand in square brackets, D forms with d. Residues, ends and D or L forms follow the SMILES beside them. X3 = O=C([C@@H]1C[C@@H](Cc2ccc(F)cc2)CN1[*:1])[*:2]; NMeNle = CCCC[C@H](NC)C(=O)O; NMeA = CN[C@@H](C)C(=O)O; Dab = NCC[C@H](N)C(=O)O

Sequence of Hu PD-L1/PD-1 (Q9NZQ7 19-290): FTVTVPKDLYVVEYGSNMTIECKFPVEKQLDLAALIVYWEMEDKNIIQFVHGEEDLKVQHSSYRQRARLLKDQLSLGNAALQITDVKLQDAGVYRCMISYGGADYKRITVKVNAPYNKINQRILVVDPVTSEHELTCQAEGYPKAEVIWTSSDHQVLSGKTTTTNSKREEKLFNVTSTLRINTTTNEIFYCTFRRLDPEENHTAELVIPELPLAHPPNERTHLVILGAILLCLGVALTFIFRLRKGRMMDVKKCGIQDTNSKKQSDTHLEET
T1 sequence (Q9NZQ7 with tags, fused parts or gaps): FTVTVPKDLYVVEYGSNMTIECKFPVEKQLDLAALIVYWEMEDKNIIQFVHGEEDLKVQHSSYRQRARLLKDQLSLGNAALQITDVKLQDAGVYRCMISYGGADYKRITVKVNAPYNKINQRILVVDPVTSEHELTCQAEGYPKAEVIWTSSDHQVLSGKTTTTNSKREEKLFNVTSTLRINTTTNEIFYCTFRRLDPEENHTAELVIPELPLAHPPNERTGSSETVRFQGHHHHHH
Sequence of CMV-specific T cells (Q9NZQ7 19-290): as the sequence (Q9NZQ7 19-290) above

`CCCC[C@H]1C(=O)N(C)[C@@H](CCCC)C(=O)N[C@@H](CCN)C(=O)N[C@H](C(=O)NCC(N)=O)CSCC(=O)N[C@@H](Cc2ccc(O)cc2)C(=O)N(C)[C@@H](C)C(=O)N[C@@H](CC(N)=O)C(=O)N2CCC[C@H]2C(=O)N[C@@H](Cc2c[nH]cn2)C(=O)N[C@@H](CCC(=O)O)C(=O)N2C[C@H](Cc3ccc(F)cc3)C[C@H]2C(=O)N[C@@H](Cc2c[nH]c3ccccc23)C(=O)N[C@@H](CCN)C(=O)N[C@@H](Cc2c[nH]c3ccccc23)C(=O)N1C` [Example 13011] ({CH2CO}-Y[NMeA]NPHE[X3]W[Dab]W[NMeNle][NMeNle][Dab]CG-NH2; thioether N-14): the EC50 on CMV-specific T cells was 38.3 nM. With `CCCC[C@H]1C(=O)N(C)[C@@H](C)C(=O)N[C@@H](CC(=O)O)C(=O)N[C@@H](C(C)C)C(=O)N(C)[C@@H](Cc2ccccc2)C(=O)N[C@@H](Cc2ccc(O)cc2)C(=O)N(C)CC(=O)N[C@@H](Cc2c[nH]c3ccccc23)C(=O)N[C@@H](Cc2ccc(O)cc2)C(=O)N[C@@H](CC(C)C)C(=O)N[C@H](C(=O)NCC(N)=O)CSCC(=O)N[C@@H](Cc2ccccc2)C(=O)N(C)[C@@H](Cc2ccccc2)C(=O)N1C` [Compound No. 77] (HELM PEPTIDE1{[O=C(C[*:3])[*:2]].F.[meF].[CCCC[C@@H](C(=O)[*:2])N(C)[*:1]].[meA].D.V.[meF].Y.[Sar].W.Y.L.C.G.[am]}$PEPTIDE1,PEPTIDE1,1:R3-14:R3$$$V2.0), the values for the IC50 at Human PD-L1/PD-1 (setting [1]) and at Hu PD-L1/PD-1 (setting [2]) were 24 nM and 16 nM, respectively. With `CCCC[C@H]1C(=O)N(C)[C@@H](CCCC)C(=O)N[C@@H](CC(C)C)C(=O)N[C@H](C(=O)NCC(N)=O)CSCC(=O)N[C@@H](Cc2ccccc2)C(=O)N(C)[C@@H](C)C(=O)N[C@@H](CC(N)=O)C(=O)N2CCC[C@H]2C(=O)N[C@@H](Cc2c[nH]cn2)C(=O)N[C@@H](CC(C)C)C(=O)N[C@@H](CO)C(=O)N[C@@H](Cc2c[nH]c3ccccc23)C(=O)N[C@@H](CCCNC(=N)N)C(=O)N[C@@H](Cc2c[nH]c3ccccc23)C(=O)N1C` [Compound No. 4] ({CH2CO}-F[NMeA]NPHLSWRW[NMeNle][NMeNle]LCG-NH2; thioether N-14), the IC50 on Human PD-L1/PD-1 (Table 6) and on Hu PD-L1/PD-1 (Table 11) was 15 nM each time. In the case of `CCCC[C@H]1C(=O)N(C)[C@@H](CCCC)C(=O)N[C@@H](CCCNC(=N)N)C(=O)N[C@H](C(=O)NCC(N)=O)CSCC(=O)N[C@@H](Cc2ccccc2)C(=O)N(C)[C@@H](C)C(=O)N[C@@H](CC(N)=O)C(=O)N2CCC[C@H]2C(=O)N[C@@H](Cc2cnc[nH]2)C(=O)N[C@@H](CC(C)C)C(=O)N2CCC[C@H]2C(=O)N[C@@H](Cc2c[nH]c3ccccc23)C(=O)N[C@@H](CO)C(=O)N[C@@H](Cc2c[nH]c3ccccc23)C(=O)N1C` [Compound No. 55] ({CH2CO}-F[NMeA]NPHLPWSW[NMeNle][NMeNle]RCG-NH2; thioether N-14), the IC50 at Human PD-L1/PD-1 (Table 8, Compound No. 1 variant macrocyclic peptides) was 4 nM; at Hu PD-L1/PD-1, 3 nM. As for `CCCC[C@H]1C(=O)N(C)CC(=O)N[C@@H](CC(=O)O)C(=O)N[C@@H](C(C)C)C(=O)N(C)[C@@H](Cc2ccccc2)C(=O)N[C@@H](Cc2ccc(O)cc2)C(=O)N(C)CC(=O)N[C@@H](Cc2c[nH]c3ccccc23)C(=O)N[C@@H](Cc2ccc(O)cc2)C(=O)N[C@@H](C)C(=O)N[C@H](C(=O)NCC(N)=O)CSCC(=O)N[C@@H](Cc2ccccc2)C(=O)N(C)[C@@H](Cc2ccccc2)C(=O)N1C` [Compound No. 87] (HELM PEPTIDE1{[O=C(C[*:3])[*:2]].F.[meF].[CCCC[C@@H](C(=O)[*:2])N(C)[*:1]].[Sar].D.V.[meF].Y.[Sar].W.Y.A.C.G.[am]}$PEPTIDE1,PEPTIDE1,1:R3-14:R3$$$V2.0), the IC50 turned out to be 25 nM on Human PD-L1/PD-1 (setting [1]) and 73 nM on Hu PD-L1/PD-1 (setting [2]).
